# Columns and labels:
# c-kit mutant D816V = c-kit mutant D816V (Homo sapiens (Human), UniProt P10721, D816V/DEL694-753); experiment: c-Kit mutant D816V biochemical assay (AlphaScreen); conditions: c-kit D816V biochemical inhibitory activity
# Procedure: The c-kit mutant D816V (or kinase domain thereof) is an active kinase in AlphaScreen. IC50 values are determined with respect to inhibition of c-Kit mutant D816V kinase activity, where inhibition of phosphorylation of a peptide substrate is measured as a function of compound concentration. Compounds to be tested were dissolved in DMSO to a concentration of 20 mM. These were diluted 30 μl into 120 μl of DMSO (4 mM) and 1 μl was added to an assay plate. These were then serially diluted 1:3 (50 μl to 100 μl DMSO) for a total of 8 points. Plates were prepared such that each kinase reaction is 20 μl in 1× kinase buffer (25 mM HEPES, pH 7.2, 8 mM MgCl2, 2 mM MnCl2, 50 mM NaCl, 0.01% Brij, 1 mM DTT, 0.01% BSA), 5% DMSO and 10 μM ATP. Substrate was 30 nM biotin-(E4Y)10 (EMD Millipore, Cat#12-440). C-kit mutant D816V kinase was at 0.75 ng per sample. After incubation of the kinase reaction for 30 minutes at room temperature, 5 μl of donor beads (Streptavidin coated beads (Perkin Elmer Life Science) final concentration 7.5 μg/ml) in stop buffer (25 mM Hepes pH 7.5, 100 mM EDTA, 0.01% BSA) was added, the sample was mixed and incubated for 20 minutes at room temperature before adding 5 μl of acceptor beads (PY20 coated beads (Perkin Elmer Life Science) final concentration 7.5 ug/ml) in stop buffer. The samples were incubated for 60 minutes at room temperature and the signal per well was read on EnVision reader. Phosphorylated substrate results in binding of the PY20 antibody and association of the donor and acceptor beads such that signal correlates with kinase activity. The signal vs. compound concentration was used to determine the IC50.
# Recombinant c-kit mutant D816V (residues 551-934, kinase insertion domain residues 694-753 deleted) with a 6x-histidine N-terminal tag was expressed in E. coli Arctic Express (DE3) RIL (Stratagene). Cells were grown in Terrific Broth (TB) media to an OD600 of 0.6 at 37° C. at which temperature was reduced to 10° C., protein was induced with 1.0 mM IPTG for 18 hours and harvested by centrifugation at 8000×g for 20 minutes. Cells were re-suspended in 0.1M KPO4 pH 8.0, 250 mM NaCl, 10% Glycerol, 0.75% NP-40, 25 mM Imidazole, 5 mM BME with 0.2 mg/ml Lysosyme, 2.0 mM PMSF, 25 μg/ml DNAse I, incubated in ice for 30 minutes and lyzed with a cell disruptor (MicroFluidics). The lysate was clarified by centrifugation at 20,000×g for 2 hours. The protein was captured with Talon resin (Clontech). Contaminating proteins were washed off with 25 mM Tris-HCl pH 8.3, 250 mM NaCl, 15% Glycerol, 1% Triton X-100, and protein eluted using 100 mM EDTA. The protein was further purified using Gel Filtration column 26/600 Superdex 200 (GE) in 50 mM Tris-HCl, pH 8.0, 250 mM NaCl, 15% Glycerol, 5 mM BME. The protein was aliquoted and flash-frozen in liquid Nitrogen.
# [1] = tested on: BaF3-FL KIT D816V or BaF3-FL KIT V560G/D816V cell line; experiment: Cell-based assays of c-Kit mutant kinase activity (cell growth, ATPlite); conditions: at least one of the c-kit cell assays of Example 26
# Method in brief: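 IC50 derived from ATP-content luminescence (ATPlite) after three-day compound exposure at 37° C., 5% CO2. Cells: BaF3 rendered growth-dependent on full-length human KIT D816V or V560G/D816V, 1×10^4 per well, RPMI plus 10% FBS; 8 points, 1:3 steps, maximum 10 μM final, 0.2% DMSO.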
# Chain of c-kit mutant D816V (P10721 other isoform, or with tags, fused parts or gaps D816V/del 694-753): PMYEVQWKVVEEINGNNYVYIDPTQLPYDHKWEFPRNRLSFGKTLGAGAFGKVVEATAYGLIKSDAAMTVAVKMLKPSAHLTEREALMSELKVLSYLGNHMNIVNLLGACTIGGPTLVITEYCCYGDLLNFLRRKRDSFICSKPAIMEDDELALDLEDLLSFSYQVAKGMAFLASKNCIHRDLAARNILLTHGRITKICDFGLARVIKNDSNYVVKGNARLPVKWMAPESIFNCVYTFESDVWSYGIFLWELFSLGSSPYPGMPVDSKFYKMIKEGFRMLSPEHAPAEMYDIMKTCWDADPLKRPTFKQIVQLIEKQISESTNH
SMILES,IC50 (c-kit mutant D816V),IC50 [1]
"Cc1n[nH]c(C(=O)Nc2cnc3[nH]c(-c4cccc(C(=O)NCC(C)C)c4)cc3c2)c1C [P-2276, N-[2-[3-(isobutylcarbamoyl)phenyl]-1H-pyrrolo[2,3-b]pyridin-5-yl]-3,4-dimethyl-1H-pyrazole-5-carboxamide]",0.0001 to 1 µM,< 10 µM
"Cc1n[nH]c(C(=O)Nc2cnc3[nH]c(-c4ccccc4)nc3c2)c1C [P-2145, 3,4-dimethyl-N-(2-phenyl-3H-imidazo[4,5-b]pyridin-6-yl)-1H-pyrazole-5-carboxamide]",0.0001 to 1 µM,< 10 µM
"Cc1ccc(-c2cc3cc(NC(=O)c4[nH]nc(C)c4C)cnc3[nH]2)cn1 [P-2123, 3,4-dimethyl-N-[2-(6-methyl-3-pyridyl)-1H-pyrrolo[2,3-b]pyridin-5-yl]-1H-pyrazole-5-carboxamide]",0.0001 to 1 µM,< 10 µM
"Cc1n[nH]c(C(=O)Nc2cnc3[nH]c(-c4cccc(F)c4C)cc3c2)c1C [P-2146, N-[2-(3-fluoro-2-methyl-phenyl)-1H-pyrrolo[2,3-b]pyridin-5-yl]-3,4-dimethyl-1H-pyrazole-5-carboxamide]",0.0001 to 1 µM,< 10 µM
"Cc1c(C(F)F)n[nH]c1C(=O)Nc1cnc2[nH]c(-c3ccc(F)cc3)cc2c1 [P-2287, 3-(difluoromethyl)-N-[2-(4-fluorophenyl)-1H-pyrrolo[2,3-b]pyridin-5-yl]-4-methyl-1H-pyrazole-5-carboxamide]",0.0001 to 1 µM,< 10 µM
"Cc1cc(C(=O)Nc2cnc3[nH]c(C#CCF)cc3c2)[nH]n1 [P-2068, N-[2-(3-fluoroprop-1-ynyl)-1H-pyrrolo[2,3-b]pyridin-5-yl]-3-methyl-1H-pyrazole-5-carboxamide]",1 to 10 µM,< 10 µM
"Cc1n[nH]c(C(=O)Nc2cnc3[nH]c(N4CCCC4)cc3c2)c1C [P-2115, 3,4-dimethyl-N-(2-pyrrolidin-1-yl-1H-pyrrolo[2,3-b]pyridin-5-yl)-1H-pyrazole-5-carboxamide]",1 to 10 µM,< 10 µM
"COc1ccc(-c2cc3cc(NC(=O)c4[nH]nc(C)c4C)cnc3[nH]2)c(C)n1 [P-2169, N-[2-(6-methoxy-2-methyl-3-pyridyl)-1H-pyrrolo[2,3-b]pyridin-5-yl]-3,4-dimethyl-1H-pyrazole-5-carboxamide]",0.0001 to 1 µM,< 10 µM
"Cc1[nH]nc(C(=O)Nc2cnc3cc(-c4ccc(F)cc4)nn3c2)c1C [P-2072, N-[2-(4-fluorophenyl)pyrazolo[1,5-a]pyrimidin-6-yl]-4,5-dimethyl-1H-pyrazole-3-carboxamide]",1 to 10 µM,< 10 µM
"O=C(Nc1cnc2[nH]c(-c3ccc(F)cc3)cc2c1)c1n[nH]c2c1CCC2 [P-2056, N-[2-(4-fluorophenyl)-1H-pyrrolo[2,3-b]pyridin-5-yl]-1,4,5,6-tetrahydrocyclopenta[c]pyrazole-3-carboxamide]",0.0001 to 1 µM,< 10 µM
"Cc1n[nH]c(C(=O)Nc2cnc3[nH]c(I)cc3c2)c1C [P-2188, N-(2-iodo-1H-pyrrolo[2,3-b]pyridin-5-yl)-3,4-dimethyl-1H-pyrazole-5-carboxamide]",1 to 10 µM,< 10 µM
"CCOc1ncc(-c2cc3cc(NC(=O)c4[nH]nc(C)c4C)cnc3[nH]2)cn1 [P-2153, N-[2-(2-ethoxypyrimidin-5-yl)-1H-pyrrolo[2,3-b]pyridin-5-yl]-3,4-dimethyl-1H-pyrazole-5-carboxamide]",0.0001 to 1 µM,< 10 µM
"Cc1onc(C(=O)Nc2cnc3[nH]c(-c4ccccc4)cc3c2)c1C [P-2017, 4,5-dimethyl-N-(2-phenyl-1H-pyrrolo[2,3-b]pyridin-5-yl)isoxazole-3-carboxamide]",10 to 200 µM,
"Cc1n[nH]c(C(=O)Nc2cnc3[nH]c(-c4cc(F)cc(N5CCOCC5)c4)cc3c2)c1C [P-2078, N-[2-(3-fluoro-5-morpholino-phenyl)-1H-pyrrolo[2,3-b]pyridin-5-yl]-3,4-dimethyl-1H-pyrazole-5-carboxamide]",0.0001 to 1 µM,< 10 µM
"Cc1n[nH]c(C(=O)Nc2cnc3[nH]c(C#CCF)cc3c2)c1C [P-2063, N-[2-(3-fluoroprop-1-ynyl)-1H-pyrrolo[2,3-b]pyridin-5-yl]-3,4-dimethyl-1H-pyrazole-5-carboxamide]",0.0001 to 1 µM,< 10 µM
"Cc1n[nH]c(C(=O)Nc2cnc3[nH]c(-c4ccc(F)nc4)cc3c2)c1C [P-2269, N-[2-(6-fluoro-3-pyridyl)-1H-pyrrolo[2,3-b]pyridin-5-yl]-3,4-dimethyl-1H-pyrazole-5-carboxamide]",0.0001 to 1 µM,< 10 µM
"NC(=O)c1cccc(NC(=O)c2cnc3[nH]c(-c4ccccc4)cc3c2)c1 [P-2003, N-(3-carbamoylphenyl)-2-phenyl-1H-pyrrolo[2,3-b]pyridine-5-carboxamide]",10 to 200 µM,
"Cc1n[nH]c(C(=O)Nc2cnc3[nH]c(-c4cnc(NC5CC5)nc4)cc3c2)c1C [P-2157, N-[2-[2-(cyclopropylamino)pyrimidin-5-yl]-1H-pyrrolo[2,3-b]pyridin-5-yl]-3,4-dimethyl-1H-pyrazole-5-carboxamide]",0.0001 to 1 µM,< 10 µM
"COc1ccncc1-c1cc2cc(NC(=O)c3[nH]nc(C)c3C)cnc2[nH]1 [P-2185, N-[2-(4-methoxy-3-pyridyl)-1H-pyrrolo[2,3-b]pyridin-5-yl]-3,4-dimethyl-1H-pyrazole-5-carboxamide]",0.0001 to 1 µM,< 10 µM
"O=C(Nc1cnc2[nH]c(-c3ccc(F)cc3)cc2c1)c1cc(C(F)F)n[nH]1 [P-2172, 3-(difluoromethyl)-N-[2-(4-fluorophenyl)-1H-pyrrolo[2,3-b]pyridin-5-yl]-1H-pyrazole-5-carboxamide]",1 to 10 µM,< 10 µM
"Cc1n[nH]c(C(=O)Nc2cnc3[nH]c(-c4ccc(F)cc4)cc3c2)c1F [P-2275, 4-fluoro-N-[2-(4-fluorophenyl)-1H-pyrrolo[2,3-b]pyridin-5-yl]-3-methyl-1H-pyrazole-5-carboxamide]",0.0001 to 1 µM,< 10 µM
"Cc1n[nH]c(C(=O)Nc2cnc3[nH]c(-c4ccccc4F)nc3c2)c1C [P-2152, N-[2-(2-fluorophenyl)-3H-imidazo[4,5-b]pyridin-6-yl]-3,4-dimethyl-1H-pyrazole-5-carboxamide]",0.0001 to 1 µM,< 10 µM
"O=C(Nc1cnc2[nH]c(-c3ccccc3)cc2c1)c1ccncn1 [P-2011, N-(2-phenyl-1H-pyrrolo[2,3-b]pyridin-5-yl)pyrimidine-4-carboxamide]",10 to 200 µM,
Cc1[nH]nc(NC(=O)c2cnc3[nH]c(-c4ccccc4)cc3c2)c1C [P-2071],10 to 200 µM,
"N#Cc1cccc(C(=O)Nc2cnc3[nH]c(-c4ccc(F)cc4)cc3c2)c1 [P-2025, 3-cyano-N-[2-(4-fluorophenyl)-1H-pyrrolo[2,3-b]pyridin-5-yl]benzamide]",10 to 200 µM,
"O=C(Nc1cnc2[nH]c(-c3ccccc3)cc2c1)c1cc(C2CC2)n[nH]1 [P-2009, 3-cyclopropyl-N-(2-phenyl-1H-pyrrolo[2,3-b]pyridin-5-yl)-1H-pyrazole-5-carboxamide]",10 to 200 µM,
"N#CCc1cccc(C(=O)Nc2cnc3[nH]c(-c4ccc(F)cc4)cc3c2)c1 [P-2021, 3-(cyanomethyl)-N-[2-(4-fluorophenyl)-1H-pyrrolo[2,3-b]pyridin-5-yl]benzamide]",10 to 200 µM,

# From patent US10301280B2 (Plexxikon Inc., priority 2012, dated 2019)
